Counter-ions that a name gives are not always drawn. Like-named read-outs stand apart in the source and are kept apart here.
Legend:
aldose reductase = target: T1, aldose reductase (Rattus norvegicus, UniProt P07943); assay: Aldose reductase inhibiting activity (crude enzyme from rat lens, NADPH absorbance at 340 nm); assay type: biochemical, rat (Wistar strain); settings: DL-glyceraldehyde 10 mM, NADPH 0.104 mM, pH 6.2, Table 4, read-out: IC50 (50% inhibition concentration), aldose reductase
T1 construct: the supernatant was used as the crude enzyme solution; from tissue; host or cells: lens of male Wistar rats (10,000 g supernatant of homogenate, crude enzyme)
Experimental: Thus, Wistar strain male rats were sacrificed by decapitation, the lenses were excised and homogenized with a 0.1 M phosphate buffer [pH 6.8; containing 1 mM of mercaptoethanol and 1 mM of nicotinamide-adenine dinucleotide phosphate (NADP)]. The homogenate was then centrifuged at 10,000 g for 15 minutes and the supernatant was used as the crude enzyme solution.
To this buffer solution, there was added 15 μl of each of solutions of each test compound in varied concentrations, followed by addition of 25 μl of the crude enzyme solution prepared in advance, to thereby initiate the reaction.

[1] = test system: thrombin-induced aggregation of washed rabbit platelets; assay: Platelet aggregation inhibiting activity (thrombin-stimulated washed rabbit platelets, aggregometer); assay type: cell-based, rabbit (albino, white local breed); settings: for IC50: Oryctolagus cuniculus, Platelet; for platelet aggregation inhibiting activity, in words: comparison with other compounds or Dipyridamole (Persantine)
Experimental: The platelets were suspended in a 15 mM Tris-hydrochloric acid buffer in a final concentration of 6×10^8 cells/ml (Tris: tris(hydroxymethyl)aminomethane). Each test compound was added thereto and incubation was carried out at 37° C. for 2 minutes. Then, the platelets were stimulated by addition of thrombin (final concentration 0.2 unit/ml; made by Mochida Pharmaceutical Co.) and the aggregation inhibiting activity was estimated by observation of the aggregation reaction using an aggregometer (made by Briston Co.).

[2] = Acute toxicity in mice (oral); assay type: in vivo; settings: mouse, in vivo, male ddY mice, 2 weeks
Description: (§1) The acute toxicity in mice was examined with the rhodanine derivative (I) of the present invention.

male ddY strain mice = assay: Acute toxicity in mice (oral); assay type: in vivo; settings: 2 weeks
Description: as §1

[3] = 2 min, washed rabbit platelets 6×10^8 cells/ml, thrombin 0.2 unit/ml, 37° C., 2 minutes, Table 3, read-out: IC50 (50 % inhibition concentration), platelet aggregation
[4] = washed rabbit platelets, read-out: concentration inhibiting thrombin-induced aggregation by 50%
[5] = 2 min, read-out: IC50 (50 % inhibition concentration), platelet aggregation

Row | Compound | IC50 (aldose reductase) | IC50 [1, 4] | platelet aggregation inhibiting activity, in words [1] | other results
1 | CCCCCCNC=C1SC(=S)N(CC(=O)O)C1=O [Compound No. 6, 3-Carboxymethyl-5-hexylaminomethylidenerhodanine] | 280 nM | – | – | –
2 | COc1ccccc1NC=C1SC(=S)N(CC(=O)O)C1=O [Compound No. 8, 3-Carboxymethyl-5-o-methoxyphenylaminomethylidenerhodanine] | 50 nM | 300000 nM | almost comparable in said activity to Dipyridamole | IC50 [1, 3]: 310000 nM
3 | O=C(O)CN1C(=O)C(=CNc2ccccc2-c2ccccc2)SC1=S [Compound No. 15, 3-Carboxymethyl-5-(2-biphenylyl)aminomethylidenerhodanine] | 150 nM | – | – | LD50 at 336 h [2]: > 4000 mg/kg; deaths noted up to a dose of 4 g/kg body weight (male ddY strain mice): no deaths were noted; IC50 [1, 5]: 410000 nM
4 | OCCN(CCO)c1nc(N2CCCCC2)c2nc(N(CCO)CCO)nc(N3CCCCC3)c2n1 [Dipyridamole, reference compound] | – | – | – | IC50 [1, 3]: 200000 nM
5 | Cc1cccc(NC=C2SC(=S)N(CC(=O)O)C2=O)c1 [Compound No. 11, 3-Carboxymethyl-5-m-methylphenylaminomethylidenerhodanine] | 36 nM | 300000 nM | almost comparable in said activity to Dipyridamole | LD50 at 336 h [2]: > 4000 mg/kg; deaths noted up to a dose of 4 g/kg body weight (male ddY strain mice): no deaths were noted; IC50 [1, 5]: 320000 nM
6 | COc1cccc(NC=C2SC(=S)N(CC(=O)O)C2=O)c1 [Compound No. 7, 3-Carboxymethyl-5-m-methoxyphenylaminomethylidene-rhodanine] | 26 nM | 300000 nM | almost comparable in said activity to Dipyridamole | LD50 at 336 h [2]: > 4000 mg/kg; deaths noted up to a dose of 4 g/kg body weight (male ddY strain mice): no deaths were noted; IC50 [1, 5]: 310000 nM
7 | O=C(O)CN1C(=O)C(=CNc2ccc(Br)cc2)SC1=S [Compound No. 10, 3-Carboxymethyl-5-p-bromophenylaminomethylidenerhodanine] | 50 nM | 300000 nM | almost comparable in said activity to Dipyridamole | IC50 [1, 3]: 300000 nM
8 | O=C(O)CN1C(=O)C(=CNc2cccc(Cl)c2)SC1=S [Compound No. 9, 3-Carboxymethyl-5-m-chlorophenylaminomethylidenerhodanine] | 23 nM | 300000 nM | almost comparable in said activity to Dipyridamole | LD50 at 336 h [2]: > 4000 mg/kg; deaths noted up to a dose of 4 g/kg body weight (male ddY strain mice): no deaths were noted

Second part, led by results:

Row | IC50 (aldose reductase) | Compound | IC50 [1, 4] | platelet aggregation inhibiting activity, in words [1] | other results
9 | 340 nM | O=C(O)CN1C(=O)C(=CN2CCOCC2)SC1=S [Compound No. 12, 3-Carboxymethyl-5-morpholinomethylidenerhodanine] | – | – | –
10 | 600 nM | CC(C)CNC=C1SC(=S)N(CC(=O)O)C1=O [Compound No. 5, 3-Carboxymethyl-5-isobutylaminomethylidenerhodanine] | – | – | –
11 | 700 nM | O=C(O)CN1C(=O)C(=CNCCO)SC1=S [Compound No. 3, Ethanolamine salt of 3-Carboxymethyl-5-hydroxyethylaminomethylidenerhodanine] | – | – | –
12 | 1300 nM | CN1CCCN(C=C2SC(=S)N(CC(=O)O)C2=O)CC1 [Compound No. 14, 3-Carboxymethyl-5-N-methylhomopiperazinomethylidenerhodanine] | – | – | –
13 | 650 nM | CN(C)C=C1SC(=S)N(CC(=O)O)C1=O [Compound No. 2, 3-Carboxymethyl-5-dimethylaminomethylidenerhodanine] | – | – | –
14 | 1300 nM | CNC=C1SC(=S)N(CC(=O)O)C1=O [Compound No. 1, 3-Carboxymethyl-5-methylaminomethylidenerhodanine] | – | – | –
15 | 300 nM | C=CCNC=C1SC(=S)N(CC(=O)O)C1=O [Compound No. 4, 3-Carboxymethyl-5allylaminomethylidenerhodanine] | – | – | –
16 | 200 nM | CN1CCN(C=C2SC(=S)N(CC(=O)O)C2=O)CC1 [Compound No. 13, 3-Carboxymethyl-5-N-methylpiperazinomethylidenerhodanine] | – | – | –
